The experiment concerns the target T1, recombinant rat mGluR5 (Rattus norvegicus, UniProt P31424).
T1 construct: expressed in transfected cells
The experiment is described as follows: Functional calcium flux assay (FLIPR), antagonism of glutamate-evoked [Ca2+]i increase. The class given is cell-based. To be noted: HEK293 cells stably expressing recombinant rat mGluR5; Fluo-8; 15 min incubation of test compound, then submaximal glutamate. The procedure:
Functional Calcium Flux Assay Methodology
For functional assays, HEK293 cells stably expressing recombinant rat mGluR5 were seeded in 384-well plates and dye loaded using Fluo-8. Cells were then washed to remove the un-incorporated dye. Antagonist evaluation was performed following a 15 min incubation of the test compound followed by the addition of submaximal concentration of glutamate. Intracellular calcium ([Ca^2+]i) measurements were performed using a fluorometric imaging plate reader (FLIPR, Molecular Devices). The glutamate-evoked increase in [Ca^2+]i in the presence of the test compounds was compared to the response to glutamate alone (the positive control). Antagonist inhibition curves were fitted with a 4-parameter logistic equation giving IC50 values, and Hill coefficients using an iterative nonlinear curve fitting algorithm.
The tables below provide IC50 data in this assay. In the activity column, A=IC50 >1,000 and ≤5,000 nM; B=IC50>500 and ≤1,000 nM and C=IC50≤500 nM.
Background: Calcium flux is commonly read through the fluorescence of an indicator in the cells.
T1 sequence (P31424 21-1203): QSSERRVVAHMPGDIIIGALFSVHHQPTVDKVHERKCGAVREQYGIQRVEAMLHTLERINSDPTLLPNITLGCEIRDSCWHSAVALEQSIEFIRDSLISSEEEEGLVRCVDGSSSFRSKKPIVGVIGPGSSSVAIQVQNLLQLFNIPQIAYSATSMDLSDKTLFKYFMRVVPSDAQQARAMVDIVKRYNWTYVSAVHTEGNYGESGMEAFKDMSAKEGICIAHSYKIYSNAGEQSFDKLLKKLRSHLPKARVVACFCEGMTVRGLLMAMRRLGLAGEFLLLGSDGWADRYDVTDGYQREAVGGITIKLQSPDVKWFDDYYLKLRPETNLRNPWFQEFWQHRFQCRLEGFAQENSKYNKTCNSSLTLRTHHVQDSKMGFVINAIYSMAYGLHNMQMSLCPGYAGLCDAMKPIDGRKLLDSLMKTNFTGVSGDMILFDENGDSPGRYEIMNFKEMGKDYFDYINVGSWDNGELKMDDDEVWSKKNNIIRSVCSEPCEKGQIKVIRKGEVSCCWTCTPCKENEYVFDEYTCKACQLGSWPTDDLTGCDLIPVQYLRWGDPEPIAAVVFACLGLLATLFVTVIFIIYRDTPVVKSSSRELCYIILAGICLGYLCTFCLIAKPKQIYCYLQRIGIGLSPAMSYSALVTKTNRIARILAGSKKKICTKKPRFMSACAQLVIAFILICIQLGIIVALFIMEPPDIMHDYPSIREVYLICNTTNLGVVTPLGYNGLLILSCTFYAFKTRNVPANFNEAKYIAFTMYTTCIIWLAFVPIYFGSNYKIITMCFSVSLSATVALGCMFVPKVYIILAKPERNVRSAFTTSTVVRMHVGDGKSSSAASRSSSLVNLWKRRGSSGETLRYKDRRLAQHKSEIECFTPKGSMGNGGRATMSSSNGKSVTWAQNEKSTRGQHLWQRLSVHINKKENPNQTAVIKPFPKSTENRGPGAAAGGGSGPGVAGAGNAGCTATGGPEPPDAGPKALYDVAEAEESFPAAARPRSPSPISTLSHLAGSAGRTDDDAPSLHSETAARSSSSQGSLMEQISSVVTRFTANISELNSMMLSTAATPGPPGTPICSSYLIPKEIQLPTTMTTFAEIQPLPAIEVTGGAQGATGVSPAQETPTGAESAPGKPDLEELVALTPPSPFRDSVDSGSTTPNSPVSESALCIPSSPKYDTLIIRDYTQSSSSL
The IC50 is the point on the concentration scale where inhibition reaches its midpoint. With `N#Cc1cc(I)cc(-n2cc(C#Cc3ccccn3)c3ccccc32)c1` [Example Compound 1, 3-iodo-5-(3-(pyridin-2-ylethynyl)-1H-indol-1-yl)benzonitrile], the half-inhibitory concentration (IC50) is ≤ 500 nM. Take `Cc1cc(C#Cc2ccncc2)c(C)n1-c1ccc(OC(F)(F)F)cc1` [Example Compound 10, 4-((2,5-dimethyl-1-(4-(trifluoromethoxy)phenyl)-1H-pyrrol-3-yl)ethynyl)pyridine]: the half-inhibitory concentration (IC50) was 1000 to 5000 nM. For the compound `Cc1cc(C#Cc2ccccn2)c(C)n1-c1ccc(OC(F)(F)F)cc1` [Example Compound 8, 2-((2,5-dimethyl-1-(4-(trifluoromethoxy)phenyl)-1H-pyrrol-3-yl)ethynyl)pyridine], the 50% inhibitory concentration (IC50) is ≤ 500 nM. In the case of `N#Cc1cc(F)cc(-n2cc(F)c(C#Cc3ccccn3)c2)c1` [Example Compound 5, 3-fluoro-5-(3-fluoro-4-(pyridin-2-ylethynyl)-1H-pyrrol-1-yl)benzonitrile], the IC50 is ≤ 500 nM.

Take `Cc1cc(C#Cc2ncccn2)c(C)n1-c1ccc(OC(F)(F)F)cc1` [Example Compound 9, 2-((2,5-dimethyl-1-(4-(trifluoromethoxy)phenyl)-1H-pyrrol-3-yl)ethynyl)pyrimidine]: the concentration for half-maximal inhibition (IC50) is ≤ 500 nM.

Take `N#Cc1cc(F)cc(-n2cc(C#Cc3ccccn3)c3ccccc32)c1` [Example Compound 2, 3-fluoro-5-(3-(pyridin-2-ylethynyl)-1H-indol-1-yl)benzonitrile]: the half-inhibitory concentration (IC50) is ≤ 500 nM. On to `Fc1ccc(-n2ccc(C#Cc3ccccc3)c2)cc1` [Example Compound 7, 1-(4-fluorophenyl)-3-(phenylethynyl)-1H-pyrrole], for which the half-inhibitory concentration (IC50) is ≤ 500 nM. For `N#Cc1cc(F)cc(-n2ccc(C#Cc3ccccn3)c2)c1` [Example Compound 6, 3-fluoro-5-(3-(pyridin-2-ylethynyl)-1H-pyrrol-1-yl)benzonitrile] the value was ≤ 500 nM; for `Fc1ccc(-n2cc(C#Cc3ccccn3)c3ccccc32)cc1` [Example Compound 3, 1-(4-fluorophenyl)-3-(pyridin-2-ylethynyl)-1H-indole], ≤ 500 nM; for `Fc1ccc(-n2cc(C#Cc3ncccn3)c3ccccc32)cc1` [Example Compound 4, 1-(4-fluorophenyl)-3-(pyrimidin-2-ylethynyl)-1H-indole], ≤ 500 nM.

The values above are taken from patent US10669255B2, “Pyrrole derivatives” (HUA MEDICINE (SHANGHAI) LTD., priority 2016, dated 2020).
